Assay results: US20230085307A1, “PYRIDAZINONE COMPOUND AND HERBICIDE” (NISSAN CHEMICAL CORPORATION, priority 2019, published 2023)

Assays:
persian speedwell = test: Test Example 5: herbicidal effect by foliage application, plastic box (Table 20, symbol R); type: in vivo, Persian speedwell (Veronica persica); conditions: foliage application, 320 g/ha, evaluated three weeks after application
Method in brief: (§1)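 Post-emergence foliar test in sterilized diluvial soil. Compound applied as water-diluted emulsion at a predetermined rate to 14-day-old plants; evaluation at three weeks.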

Italian ryegrass = test: Test Example 5: herbicidal effect by foliage application, plastic box (Table 20, symbol K); type: in vivo, Italian ryegrass (Lolium multiflorum); conditions: foliage application, 320 g/ha, evaluated three weeks after application
Method in brief: as §1

Japanese bulrush [1] = test: Test Example 2: herbicidal activity, application during weed generation under submerged conditions (Table 17, symbol B); type: in vivo, Japanese bulrush (Schoenoplectus juncoides); conditions: AAH 320 g/ha; application during weed generation, submerged conditions
Method in brief: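 Effect on each weed is rated three weeks post-treatment, using the same scoring criteria as the preceding test. Plants grow from mixed-sown seed in flooded alluvial soil (4 cm water) at 25° C. to 30° C., and are treated at one to two leaves with diluted emulsion dropped onto the water.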

barnyard grass [2] = test: Test Example 3: herbicidal effect by foliage application, Wagner pot (Table 18, symbol H); type: in vivo, barnyard grass (Echinochloa crus-galli); conditions: for herbicidal effect on H: barnyard grass: amount of applied herbicide 320 g/ha
Method in brief: (§2)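 Plants were sown in alluvial soil held under 0.1–0.5 cm standing water and grown 14 days in a greenhouse at 25–30 °C. An emulsifiable formulation, water-diluted to the set dose, was then sprayed onto the foliage, and effects were scored three weeks later using previously defined criteria.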

lambsquarters [3] = test: Test Example 5: herbicidal effect by foliage application, plastic box (Table 20, symbol O); type: in vivo, lambsquarters (Chenopodium album); conditions: foliage application, 320 g/ha, evaluated three weeks after application
Method in brief: as §1

lambsquarters [4] = test: Test Example 4: herbicidal effect by soil treatment (Table 19, symbol O); type: in vivo, lambsquarters (Chenopodium album); conditions: amount of applied herbicide 320 g/ha
Method in brief: (§3)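 Scoring uses the grading scale of an earlier test, three weeks post-application. Treatment consists of spraying a diluted emulsion formulation across the surface of sterilized diluvial soil in which seeds are buried near 1.5 cm deep; boxes are kept in a greenhouse between 25° C. and 30° C.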

velvetleaf [5] = test: Test Example 5: herbicidal effect by foliage application, plastic box (Table 20, symbol M); type: in vivo, velvetleaf (Abutilon theophrasti); conditions: foliage application, 320 g/ha, evaluated three weeks after application
Method in brief: as §1

velvetleaf [6] = test: Test Example 4: herbicidal effect by soil treatment (Table 19, symbol M); type: in vivo, velvetleaf (Abutilon theophrasti); conditions: amount of applied herbicide 320 g/ha
Method in brief: as §3

southern crabgrass [7] = test: Test Example 4: herbicidal effect by soil treatment (Table 19, symbol F); type: in vivo, southern crabgrass (Digitaria ciliaris); conditions: amount of applied herbicide 320 g/ha
Method in brief: as §3

windgrass [8] = test: Test Example 4: herbicidal effect by soil treatment (Table 19, symbol L); type: in vivo, windgrass (Apera spica-venti); conditions: amount of applied herbicide 320 g/ha
Method in brief: as §3

barnyard grass [9] = test: Test Example 4: herbicidal effect by soil treatment (Table 19, symbol H); type: in vivo, barnyard grass (Echinochloa crus-galli); conditions: amount of applied herbicide 320 g/ha
Method in brief: as §3

windgrass [10] = test: Test Example 5: herbicidal effect by foliage application, plastic box (Table 20, symbol L); type: in vivo, windgrass (Apera spica-venti); conditions: foliage application, 320 g/ha, evaluated three weeks after application
Method in brief: as §1

wild oat = test: Test Example 5: herbicidal effect by foliage application, plastic box (Table 20, symbol I); type: in vivo, wild oat (Avena fatua); conditions: foliage application, 320 g/ha, evaluated three weeks after application
Method in brief: as §1

Japanese bulrush [11] = test: Test Example 1: herbicidal activity, application before weed generation under submerged conditions (Table 16, symbol B); type: in vivo, Japanese bulrush (Schoenoplectus juncoides); conditions: 320 g/ha applied herbicide
Method in brief: (§4)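 Emulsion formulation, water-diluted to set dose, was put onto the flooded surface (4 cm depth, alluvial soil) the same day weeds were sown and 2.5-leaf rice transplanted. After 3 weeks at 25-30 °C under glass, each species was rated 0 (≤5% kill) to 5 (≥90% kill).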

Chinese sprangletop = test: Test Example 3: herbicidal effect by foliage application, Wagner pot (Table 18, symbol D); type: in vivo, chinese sprangletop (Leptochloa chinensis); conditions: for herbicidal effect on D: Chinese sprangletop: amount of applied herbicide 320 g/ha
Method in brief: as §2

late watergrass = test: Test Example 1: herbicidal activity, application before weed generation under submerged conditions (Table 16, symbol A); type: in vivo, late watergrass (Echinochloa oryzicola); conditions: 320 g/ha applied herbicide
Method in brief: as §4

southern crabgrass [12] = test: Test Example 5: herbicidal effect by foliage application, plastic box (Table 20, symbol F); type: in vivo, southern crabgrass (Digitaria ciliaris); conditions: foliage application, 320 g/ha, evaluated three weeks after application
Method in brief: as §1

Structure (SMILES)	herbicidal effect on R: persian speedwell (persian speedwell)	herbicidal effect on K: Italian ryegrass (Italian ryegrass)	herbicidal effect rating, B: Japanese bulrush (Japanese bulrush [1])	herbicidal effect on O: lambsquarters (lambsquarters [3])	O: lambsquarters, herbicidal effect rating (lambsquarters [4])	herbicidal effect on M: velvetleaf (velvetleaf [5])	M: velvetleaf, herbicidal effect rating (velvetleaf [6])	F: southern crabgrass, herbicidal effect rating (southern crabgrass [7])	L: windgrass, herbicidal effect rating (windgrass [8])	H: barnyard grass, herbicidal effect rating (barnyard grass [9])	herbicidal effect on L: windgrass (windgrass [10])	herbicidal effect on I: wild oat (wild oat)	Herbicidal effect on B: Japanese bulrush (grade 0-5) (Japanese bulrush [11])	Herbicidal effect on A: late watergrass (grade 0-5) (late watergrass)	herbicidal effect on F: southern crabgrass (southern crabgrass [12])	herbicidal effect on H: barnyard grass (barnyard grass [2])	herbicidal effect on D: Chinese sprangletop (Chinese sprangletop)	herbicidal effect on R: persian speedwell (criteria 0-5) (persian speedwell)	herbicidal effect on K: Italian ryegrass (criteria 0-5) (Italian ryegrass)	herbicidal effect on O: lambsquarters (criteria 0-5) (lambsquarters [3])	also measured
COc1ccccc1-c1sc2ccc(Cl)cc2c1-c1c(O)c(C)nn(C)c1=O [2-101]	5 (Herbicidal rate of 90% or more (almost completely withered))	4 (Herbicidal rate of 70% or more and less than 90%)	3 (Herbicidal rate of 40% or more and less than 70%)	5 (Herbicidal rate of 90% or more (almost completely withered))	4 (Herbicidal rate of 70% or more and less than 90%)	5 (Herbicidal rate of 90% or more (almost completely withered))	3 (Herbicidal rate of 40% or more and less than 70%)	3 (Herbicidal rate of 40% or more and less than 70%)	0 (Herbicidal rate of 5% or less (almost no effect))	3 (Herbicidal rate of 40% or more and less than 70%)	4 (Herbicidal rate of 70% or more and less than 90%)	3 (Herbicidal rate of 40% or more and less than 70%)	3 (Herbicidal rate of 40% or more and less than 70%)	0 (Herbicidal rate of 5% or less (almost no effect))	2 (Herbicidal rate of 20% or more and less than 40%)						herbicidal effect on H (barnyard grass), rating 0-5 (barnyard grass [2]; 320 g/ha): 4 (Herbicidal rate of 70% or more and less than 90%); herbicidal effect on D (Chinese sprangletop), rating 0-5 (Chinese sprangletop; 320 g/ha): 0 (Herbicidal rate of 5% or less (almost no effect))
Cc1nn(C)c(=O)c(-c2c(-c3ccc(C#N)cc3)sc3ccc(Cl)cc23)c1O [2-112]	5 (Herbicidal rate of 90% or more (almost completely withered))	5 (Herbicidal rate of 90% or more (almost completely withered))	0 (Herbicidal rate of 5% or less (almost no effect))	4 (Herbicidal rate of 70% or more and less than 90%)	5 (Herbicidal rate of 90% or more (almost completely withered))	4 (Herbicidal rate of 70% or more and less than 90%)	4 (Herbicidal rate of 70% or more and less than 90%)	3 (Herbicidal rate of 40% or more and less than 70%)	5 (Herbicidal rate of 90% or more (almost completely withered))	0 (Herbicidal rate of 5% or less (almost no effect))	5 (Herbicidal rate of 90% or more (almost completely withered))	5 (Herbicidal rate of 90% or more (almost completely withered))	2 (Herbicidal rate of 20% or more and less than 40%)	0 (Herbicidal rate of 5% or less (almost no effect))	4 (Herbicidal rate of 70% or more and less than 90%)	5 (Herbicidal rate of 90% or more (almost completely withered))	4 (Herbicidal rate of 70% or more and less than 90%)				
CCCC(=O)Oc1c(C)nn(C)c(=O)c1-c1c(-c2cccc(F)c2)sc2ccc(F)cc12 [2-202]			3 (Herbicidal rate of 40% or more and less than 70%)		5 (Herbicidal rate of 90% or more (almost completely withered))		0 (Herbicidal rate of 5% or less (almost no effect))	2 (Herbicidal rate of 20% or more and less than 40%)	0 (Herbicidal rate of 5% or less (almost no effect))	4 (Herbicidal rate of 70% or more and less than 90%)			0 (Herbicidal rate of 5% or less (almost no effect))	3 (Herbicidal rate of 40% or more and less than 70%)		5 (Herbicidal rate of 90% or more (almost completely withered))	5 (Herbicidal rate of 90% or more (almost completely withered))	4 (Herbicidal rate of 70% or more and less than 90%)	3 (Herbicidal rate of 40% or more and less than 70%)	4 (Herbicidal rate of 70% or more and less than 90%)	herbicidal effect on M: velvetleaf (criteria 0-5) (velvetleaf [5]): 5 (Herbicidal rate of 90% or more (almost completely withered)); herbicidal effect on L: windgrass (criteria 0-5) (windgrass [10]): 2 (Herbicidal rate of 20% or more and less than 40%); herbicidal effect on I: wild oat (criteria 0-5) (wild oat): 1 (Herbicidal rate of 5% or more and less than 20%); herbicidal effect on F: southern crabgrass (criteria 0-5) (southern crabgrass [12]): 3 (Herbicidal rate of 40% or more and less than 70%)
Cc1nn(C)c(=O)c(-c2c(-c3cccc(OC(C)C)c3)sc3ccc(F)cc23)c1O [2-215]			0 (Herbicidal rate of 5% or less (almost no effect))		3 (Herbicidal rate of 40% or more and less than 70%)		2 (Herbicidal rate of 20% or more and less than 40%)	5 (Herbicidal rate of 90% or more (almost completely withered))	0 (Herbicidal rate of 5% or less (almost no effect))	5 (Herbicidal rate of 90% or more (almost completely withered))			0 (Herbicidal rate of 5% or less (almost no effect))	3 (Herbicidal rate of 40% or more and less than 70%)		5 (Herbicidal rate of 90% or more (almost completely withered))	5 (Herbicidal rate of 90% or more (almost completely withered))	5 (Herbicidal rate of 90% or more (almost completely withered))	5 (Herbicidal rate of 90% or more (almost completely withered))	3 (Herbicidal rate of 40% or more and less than 70%)	herbicidal effect on M: velvetleaf (criteria 0-5) (velvetleaf [5]): 3 (Herbicidal rate of 40% or more and less than 70%); herbicidal effect on L: windgrass (criteria 0-5) (windgrass [10]): 3 (Herbicidal rate of 40% or more and less than 70%); herbicidal effect on I: wild oat (criteria 0-5) (wild oat): 0 (Herbicidal rate of 5% or less (almost no effect)); herbicidal effect on F: southern crabgrass (criteria 0-5) (southern crabgrass [12]): 5 (Herbicidal rate of 90% or more (almost completely withered))
